Test results: PubChem BioAssay (NCI)
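How tested: cells in 96-well plates exposed to compound for 48 hours at five concentrations. GI50 is the concentration that inhibits growth by half. TGI denotes the concentration required for complete inhibition of growth.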

Tests used:
Test in all cases: NCI anticancer screen, dose series, 48 h
786-0 renal = system: 786-0 renal
A498 renal = system: A498 renal
A549 NSCLC = system: A549 NSCLC
ACHN renal = system: ACHN renal
BT-549 breast = system: BT-549 breast
CAKI-1 renal = system: CAKI-1 renal
CCRF-CEM leukemia = system: CCRF-CEM leukemia
COLO 205 colon = system: COLO 205 colon
DU-145 prostate = system: DU-145 prostate
EKVX NSCLC = system: EKVX NSCLC
HCC-2998 colon = system: HCC-2998 colon
HCT-116 colon = system: HCT-116 colon
HCT-15 colon = system: HCT-15 colon
HL-60(TB) leukemia = system: HL-60(TB) leukemia
HOP-62 NSCLC = system: HOP-62 NSCLC
HOP-92 NSCLC = system: HOP-92 NSCLC
HS 578T breast = system: HS 578T breast
HT29 colon = system: HT29 colon
IGROV1 ovarian = system: IGROV1 ovarian
K-562 leukemia = system: K-562 leukemia
KM12 colon = system: KM12 colon
LOX IMVI melanoma = system: LOX IMVI melanoma
M14 melanoma = system: M14 melanoma
MALME-3M melanoma = system: MALME-3M melanoma
MCF7 breast = system: MCF7 breast
MDA-MB-231 breast = system: MDA-MB-231 breast
MDA-MB-435 = system: MDA-MB-435
MOLT-4 leukemia = system: MOLT-4 leukemia
NCI-H226 lung = system: NCI-H226 lung
NCI-H23 lung = system: NCI-H23 lung
NCI-H460 lung = system: NCI-H460 lung
NCI-H522 lung = system: NCI-H522 lung
NCI/ADR-RES ovarian = system: NCI/ADR-RES ovarian
OVCAR-3 ovarian = system: OVCAR-3 ovarian
OVCAR-4 ovarian = system: OVCAR-4 ovarian
OVCAR-5 ovarian = system: OVCAR-5 ovarian
OVCAR-8 ovarian = system: OVCAR-8 ovarian
PC-3 prostate = system: PC-3 prostate
RPMI-8226 leukemia = system: RPMI-8226 leukemia
RXF 393 renal = system: RXF 393 renal
SF-268 CNS = system: SF-268 CNS
SF-295 CNS = system: SF-295 CNS
SF-539 CNS = system: SF-539 CNS
SK-MEL-2 melanoma = system: SK-MEL-2 melanoma
SK-MEL-28 melanoma = system: SK-MEL-28 melanoma
SK-MEL-5 melanoma = system: SK-MEL-5 melanoma
SK-OV-3 ovarian = system: SK-OV-3 ovarian
SN12C renal = system: SN12C renal
SNB-19 CNS = system: SNB-19 CNS
SNB-75 CNS = system: SNB-75 CNS
SR leukemia = system: SR leukemia
SW-620 colon = system: SW-620 colon
T-47D breast = system: T-47D breast
TK-10 renal = system: TK-10 renal
U251 CNS = system: U251 CNS
UACC-257 melanoma = system: UACC-257 melanoma
UACC-62 melanoma = system: UACC-62 melanoma
UO-31 renal = system: UO-31 renal

Compound: O=C1[C@H]2Cc3c([nH]c4ccccc34)[C@@H](c3ccc(Br)cc3)N2C(=O)CN1C1CCN(Cc2ccccc2)CC1
- GI50 (786-0 renal): 3.46 µM
- TGI (786-0 renal): 7 µM
- GI50 (A498 renal): 4.28 µM
- TGI (A498 renal): 8.04 µM
- GI50 (A549 NSCLC): 3.7 µM
- TGI (A549 NSCLC): 13.5 µM
- GI50 (ACHN renal): 3.76 µM
- TGI (ACHN renal): 9.65 µM
- GI50 (BT-549 breast): 3.4 µM
- TGI (BT-549 breast): 7.49 µM
- GI50 (CAKI-1 renal): 2.44 µM
- TGI (CAKI-1 renal): 7.58 µM
- GI50 (CCRF-CEM leukemia): 3.3 µM
- TGI (CCRF-CEM leukemia): > 25 µM
- GI50 (COLO 205 colon): 2.62 µM
- TGI (COLO 205 colon): 6.04 µM
- GI50 (DU-145 prostate): 7.12 µM
- TGI (DU-145 prostate): > 25 µM
- GI50 (EKVX NSCLC): 3.35 µM
- TGI (EKVX NSCLC): 14.7 µM
- GI50 (HCC-2998 colon): 3.44 µM
- TGI (HCC-2998 colon): 7.94 µM
- GI50 (HCT-116 colon): 2.54 µM
- TGI (HCT-116 colon): 5.72 µM
- GI50 (HCT-15 colon): 2.62 µM
- TGI (HCT-15 colon): 5.92 µM
- GI50 (HL-60(TB) leukemia): 2.3 µM
- TGI (HL-60(TB) leukemia): 8.31 µM
- GI50 (HOP-62 NSCLC): 3.98 µM
- TGI (HOP-62 NSCLC): 10.8 µM
- GI50 (HOP-92 NSCLC): 2.65 µM
- TGI (HOP-92 NSCLC): 6.57 µM
- GI50 (HS 578T breast): 3.4 µM
- TGI (HS 578T breast): 9.29 µM
- GI50 (HT29 colon): 3 µM
- TGI (HT29 colon): 7.74 µM
- GI50 (IGROV1 ovarian): 1.49 µM
- TGI (IGROV1 ovarian): 5.8 µM
- GI50 (K-562 leukemia): 1.06 µM
- TGI (K-562 leukemia): 9.94 µM
- GI50 (KM12 colon): 5.49 µM
- TGI (KM12 colon): 18.1 µM
- GI50 (LOX IMVI melanoma): 2.73 µM
- TGI (LOX IMVI melanoma): 6.92 µM
- GI50 (M14 melanoma): 3.24 µM
- TGI (M14 melanoma): 8.35 µM
- GI50 (MALME-3M melanoma): 3.69 µM
- TGI (MALME-3M melanoma): 7.81 µM
- GI50 (MCF7 breast): 1.14 µM
- TGI (MCF7 breast): 4.75 µM
- GI50 (MDA-MB-231 breast): 3.44 µM
- TGI (MDA-MB-231 breast): 7.56 µM
- GI50 (MDA-MB-435): 3.5 µM
- TGI (MDA-MB-435): 7.02 µM
- GI50 (MOLT-4 leukemia): 1.5 µM
- TGI (MOLT-4 leukemia): > 25 µM
- GI50 (NCI-H226 lung): 5.04 µM
- TGI (NCI-H226 lung): > 25 µM
- GI50 (NCI-H23 lung): 3.98 µM
- TGI (NCI-H23 lung): 9.4 µM
- GI50 (NCI-H460 lung): 3.87 µM
- TGI (NCI-H460 lung): 7.82 µM
- GI50 (NCI-H522 lung): 4.6 µM
- TGI (NCI-H522 lung): 10.3 µM
- GI50 (NCI/ADR-RES ovarian): 3.58 µM
- TGI (NCI/ADR-RES ovarian): 9.46 µM
- GI50 (OVCAR-3 ovarian): 3.27 µM
- TGI (OVCAR-3 ovarian): 7.23 µM
- GI50 (OVCAR-4 ovarian): 4.24 µM
- TGI (OVCAR-4 ovarian): 13.1 µM
- GI50 (OVCAR-5 ovarian): 5.1 µM
- TGI (OVCAR-5 ovarian): 12.7 µM
- GI50 (OVCAR-8 ovarian): 3.99 µM
- TGI (OVCAR-8 ovarian): 9.01 µM
- GI50 (PC-3 prostate): 1.67 µM
- TGI (PC-3 prostate): 7.3 µM
- GI50 (RPMI-8226 leukemia): 1.74 µM
- TGI (RPMI-8226 leukemia): 7.67 µM
- GI50 (RXF 393 renal): 2.91 µM
- TGI (RXF 393 renal): 6.41 µM
- GI50 (SF-268 CNS): 3.49 µM
- TGI (SF-268 CNS): > 25 µM
- GI50 (SF-295 CNS): 4.56 µM
- TGI (SF-295 CNS): 9.1 µM
- GI50 (SF-539 CNS): 3.61 µM
- TGI (SF-539 CNS): 7.03 µM
- GI50 (SK-MEL-2 melanoma): 5.73 µM
- TGI (SK-MEL-2 melanoma): 14.9 µM
- GI50 (SK-MEL-28 melanoma): 4.41 µM
- TGI (SK-MEL-28 melanoma): 8.53 µM
- GI50 (SK-MEL-5 melanoma): 3.84 µM
- TGI (SK-MEL-5 melanoma): 7.29 µM
- GI50 (SK-OV-3 ovarian): 6 µM
- TGI (SK-OV-3 ovarian): > 25 µM
- GI50 (SN12C renal): 3.17 µM
- TGI (SN12C renal): 6.72 µM
- GI50 (SNB-19 CNS): 6.77 µM
- TGI (SNB-19 CNS): > 25 µM
- GI50 (SNB-75 CNS): 0.745 µM
- TGI (SNB-75 CNS): 18.3 µM
- GI50 (SR leukemia): 1.86 µM
- TGI (SR leukemia): 8.79 µM
- GI50 (SW-620 colon): 3.32 µM
- TGI (SW-620 colon): 7.15 µM
- GI50 (T-47D breast): 3.54 µM
- TGI (T-47D breast): 15.7 µM
- GI50 (TK-10 renal): 5.79 µM
- TGI (TK-10 renal): 12.7 µM
- GI50 (U251 CNS): 2.96 µM
- TGI (U251 CNS): 6.53 µM
- GI50 (UACC-257 melanoma): 4.64 µM
- TGI (UACC-257 melanoma): 10.2 µM
- GI50 (UACC-62 melanoma): 3.58 µM
- TGI (UACC-62 melanoma): 9.3 µM
- GI50 (UO-31 renal): 1.13 µM
- TGI (UO-31 renal): 18.2 µM
